Reference: ChEMBL document CHEMBL1150934, “Cyclic polyketide peroxides and acyclic diol analogues from the sponge Plakortis lita” (J Nat Prod, 1998)
Activity calls are given as the source filed them. No cut-off for these calls is given here.

Tested on: PO3
Test: Antitumor activity in mouse PO3 cells xenografted mouse at 304.5 mg/kg after 31 days
Assay type: functional, organism-based
Set-up: dose 304.5 mg/kg

CC/C=C/[C@]1(CC)C[C@@H](CC)[C@H](CC(=O)OCC)OO1
Activity: inactive
